The values below come from patent publication US9399145B2, “Nanoscale neuromodulating platform for retina neuron activation apparatus and method” (The Board of Trustees of the University of Illinois, priority 2005, dated 2016).

The target in data set [1] is T1, α1β2γ2 GABAARs (rat α1, rat β2 and human γ2S) (UniProt P18507+P62813+P63138).
T1 construct: expressed in transfected cells; host or cells: Xenopus laevis oocytes
The data set can be described thus: Two-electrode voltage clamp of α1β2γ2 GABAAR-expressing Xenopus oocytes. The conditions noted are these: for rate constant 1/τ of UV-induced decrease in membrane current (de-potentiation): 3 μM GABA and 1 μM MPC088. It is filed as cell-based. The source says:
Purple and gray bars indicate periods of presentation of UV light (purple) and high-intensity visible light (High-Vis) (gray), respectively. […] These amplitude determination conditions are denoted by numbers beneath the waveform in FIG. 35d.
In each of the MPC088 experiments, the cis-dominant form was generated by UV light during static bathing. […] Numbers beneath the waveform in FIG. 2(c) denote amplitude determination conditions for that experiment.
Oocytes expressing α1β2γ2 receptors (rat α1, rat β2 and human γ2S) were prepared and studied by two-electrode voltage-clamp recording^58 (holding potential: −70 mV; amplifier: GeneClamp500B; Axon Instruments, Foster City, Calif.). Unless otherwise indicated, oocytes were superfused with Ringer solution (physiological saline) at a rate of ˜1 mL/min. The experiments of FIGS. 35d-e, 36c-e and 47 involved periods of static bathing, i.e., halted superfusion. The γ2(A79C) subunit was prepared by site-directed mutagenesis. Oocyte electrophysiological experiments were carried out in room light. A UV light-emitting diode (peak wavelength: 365 nm; Hamamatsu Photonics, Japan) and a microscope illuminator (white light; Schott Fostec, Auburn, N.Y.) provided UV and visible stimulating light. As measured at the position of the oocyte, the intensity of the UV light at 365 nm was 220 μW/mm^2. At 440 nm, the nominal strength of the visible (white) light (referred to as high-intensity visible light) was 28 μW/mm^2, and that of the ambient room illumination was 0.045 μW/mm^2. In all experiments, low-intensity visible light from the microscope illuminator (3 μW/mm^2 at 440 nm) was present at all times except those involving high-intensity visible illumination. Electrophysiological data were obtained using Clampex 8.2 (Axon Instruments), analyzed using Clampfit 10.0 (Axon Instruments) and OriginPro7.5 (OriginLab, Northampton, Mass.). All statistical analysis employed a two-sample t-test.
(In general: Two-electrode voltage clamp holds a large cell at a set potential and records current.)

Data set [2] can be described thus: Spectrophotometric and NMR analysis of photoisomerization. The format is physicochemical. As to the method: UV and visible light sources of the electrophysiological apparatus were used for the spectrophotometric and NMR experiments. MPC088 samples were analyzed as DMSO solutions in a quartz cuvette (spectrophotometry) and a DMSO-d6 solution in a quartz NMR tube.
To test the stability of cis-MPC088 in darkness, a preparation of 30 μM MPC088 in oocyte Ringer solution that had been converted to predominantly cis form by a 5-min UV illumination was spectrophotometrically analyzed. The sample was subsequently kept in darkness at room temperature.
The UV-induced decrease in membrane current was analyzed by fitting a simple exponential decay function to the waveforms obtained and determining the exponential time constant (τ).

Data set [3] has as its target T2, GABAAR subtype that consists of a pentameric assembly of p1 subunits (Homo sapiens, UniProt P24046).
T2 construct: expressed in transfected cells; host or cells: Xenopus oocytes
Description: Oocytes expressing the GABAAR subtype of p1 subunits. It is filed as cell-based.

Another data set addresses T3, α4β3δ GABAAR (Homo sapiens, UniProt P28472+P48169).
T3 construct: expressed in transfected cells; host or cells: Xenopus oocytes
Description: Two-electrode voltage clamp of α4β3δ GABAAR-expressing oocytes. It is filed as cell-based. An excerpt:
Propofol is known to modulate GABAA receptors that contain a β subunit. […] Data in each group was obtained from 4 oocytes.

Data set [4] has as its system GABAARs of retinal ganglion cells. The data set can be described thus: Whole-cell patch clamp of isolated retinal ganglion cells. It is filed as cell-based, rat. The conditions noted are these: for peak amplitude of direct response relative to response to 200 μM GABA: alone. Here is the method:
To test whether native neuronal GABAARs respond to MPC088, retinal ganglion cells (RGCs), a cell type known to abundantly express GABAARs (Ishida et al. (1988); Fischer et al. (1998); Wässle et al. (1998); Rotolo et al. (2003)), were examined. […] The cis-dominant preparation was obtained by pre-treating trans-dominant MPC088 with UV light for 5 min.
Inset: Aggregate data for direct activation by MPC088.
Experiments were conducted on enzymatically dissociated ganglion cells obtained from adult Sprague-Dawley rats (male and female, 6-16 weeks of age) (Charles River Laboratories, Wilmington, Mass.). Procedures for euthanasia, isolation of the retina, and the dissociation of retinal cells were as described previously (Ramsey et al. (2007) except that the period of retinal cell dissociation was shortened from 40 min to 20 min. Isolated ganglion cells were identified on the basis of their morphological appearance and the presence of a large voltage-gated sodium current. Whole-cell patch-clamp techniques similar to those described (Ramsey et al. (2007)) were used to record membrane current responses to test agents. The patch pipette with a resistance of 8-12 MΩ was pulled in two stages using a micro-electrode puller (Model PP830, Narishige Group, Tokyo, Japan). The pipette was filled with an intracellular solution containing 95 mM CsCH3SO3, 20 mM TEA-Cl, 10 mM glutamic acid, 1 mM BAPTA, 10 mM HEPES, 8 mM phosphocreatine di(tris), 1 mM MgATP and 0.2 mM Na2GTP; pH adjusted to 7.2 with CsOH. Cells were clamped at 0 mV (Axopatch 200B amplifier; Axon Instruments), and experimental runs were controlled by pCLAMP system software (Axon Instruments). Electrophysiological data were obtained in response to test compounds dissolved in physiological saline (Ringer solution) that consisted of 135 mM NaCl, 5 mM KCl, 2 mM CaCl2, 2 mM MgCl2, 10 mM glucose, and 5 mM HEPES, pH 7.4. Supplementation of aqueous test solutions with MPC088 was carried out by adding an aliquot of a stock solution containing the compound dissolved in dimethyl sulfoxide (DMSO). In all experiments, the amount of carrier DMSO present in the applied test solution was <1% (v/v). Test solutions were delivered from separate reservoirs by a multi-channel perfusion system. The same UV-LED used in the oocyte experiments was used for UV illumination of MPC088-supplemented test solutions. For preparation of cis-dominant MPC088, the test solution of initially trans-dominant compound underwent a 5-min UV illumination prior to its placement in the perfusion reservoir. All preparative procedures were performed in the dark, and the reservoirs and perfusion lines were light-protected with aluminum foil. As in the oocyte experiments, data were analyzed with Clampfit and plotted with Origin. Unless otherwise stated, numerical data from replicate experiments are presented as mean±SD, and all statistical analyses of data obtained from oocytes and from retinal ganglion cells employed a two-sample t-test.
On the technique in general: In patch-clamp work, channel activity is measured electrically.

The mark [5] stands for this setting: 2.0 mM in DMSO-d6, before illumination.
The mark [6] stands for this setting: after UV illumination for 5 min.
Where [7] appears, read: after UV, then visible light for 10 min.

T1 sequence (P62813 28-455): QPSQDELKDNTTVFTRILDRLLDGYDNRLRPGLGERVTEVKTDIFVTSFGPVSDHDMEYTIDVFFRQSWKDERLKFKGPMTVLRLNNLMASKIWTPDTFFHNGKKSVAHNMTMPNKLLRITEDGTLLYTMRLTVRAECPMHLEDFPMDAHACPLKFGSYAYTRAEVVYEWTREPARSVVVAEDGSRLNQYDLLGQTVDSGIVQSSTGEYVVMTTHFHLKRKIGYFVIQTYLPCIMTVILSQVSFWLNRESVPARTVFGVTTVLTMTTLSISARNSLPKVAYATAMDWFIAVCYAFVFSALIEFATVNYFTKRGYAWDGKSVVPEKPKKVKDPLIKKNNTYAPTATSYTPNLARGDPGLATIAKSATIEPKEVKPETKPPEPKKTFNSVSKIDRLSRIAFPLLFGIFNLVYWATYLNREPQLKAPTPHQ
T1 sequence (P63138 25-474 limits assumed): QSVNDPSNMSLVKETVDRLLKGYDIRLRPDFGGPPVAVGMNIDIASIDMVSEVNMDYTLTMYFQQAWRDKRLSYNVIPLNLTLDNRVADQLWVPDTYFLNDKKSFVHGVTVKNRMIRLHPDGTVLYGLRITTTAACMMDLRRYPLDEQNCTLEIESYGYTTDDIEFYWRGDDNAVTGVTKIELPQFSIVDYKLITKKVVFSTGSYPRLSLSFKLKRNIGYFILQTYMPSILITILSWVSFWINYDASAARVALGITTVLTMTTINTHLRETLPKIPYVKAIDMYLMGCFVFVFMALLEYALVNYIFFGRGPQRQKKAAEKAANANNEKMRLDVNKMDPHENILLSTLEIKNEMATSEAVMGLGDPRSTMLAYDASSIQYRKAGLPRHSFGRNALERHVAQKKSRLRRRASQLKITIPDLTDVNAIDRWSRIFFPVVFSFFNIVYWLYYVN
T1 sequence (P18507 40-467 isoform P18507-1 limits assumed): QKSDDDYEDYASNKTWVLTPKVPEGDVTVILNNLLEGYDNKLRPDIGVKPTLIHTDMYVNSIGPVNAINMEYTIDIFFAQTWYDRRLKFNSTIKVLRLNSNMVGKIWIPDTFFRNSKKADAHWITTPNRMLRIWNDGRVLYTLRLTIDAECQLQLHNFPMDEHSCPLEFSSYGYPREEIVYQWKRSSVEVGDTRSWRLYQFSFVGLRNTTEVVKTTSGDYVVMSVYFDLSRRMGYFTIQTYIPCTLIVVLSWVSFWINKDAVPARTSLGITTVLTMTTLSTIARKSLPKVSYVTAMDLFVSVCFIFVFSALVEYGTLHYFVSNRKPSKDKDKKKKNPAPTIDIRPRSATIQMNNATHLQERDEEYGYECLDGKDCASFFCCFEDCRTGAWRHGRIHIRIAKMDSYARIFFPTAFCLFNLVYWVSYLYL
T3 sequence (P48169 36-554): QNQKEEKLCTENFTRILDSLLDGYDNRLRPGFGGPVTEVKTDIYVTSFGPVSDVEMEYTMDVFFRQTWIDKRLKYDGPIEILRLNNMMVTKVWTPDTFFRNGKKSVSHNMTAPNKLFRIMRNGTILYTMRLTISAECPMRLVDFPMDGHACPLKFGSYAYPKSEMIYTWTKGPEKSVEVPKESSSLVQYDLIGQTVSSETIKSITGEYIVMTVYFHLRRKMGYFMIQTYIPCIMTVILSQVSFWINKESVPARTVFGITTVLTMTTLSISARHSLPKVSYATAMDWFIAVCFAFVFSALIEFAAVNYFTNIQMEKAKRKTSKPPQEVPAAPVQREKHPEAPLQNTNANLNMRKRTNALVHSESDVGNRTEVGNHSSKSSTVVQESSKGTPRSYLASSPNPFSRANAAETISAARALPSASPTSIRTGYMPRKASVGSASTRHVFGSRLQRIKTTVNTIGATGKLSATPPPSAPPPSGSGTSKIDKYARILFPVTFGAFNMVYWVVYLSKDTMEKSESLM
T3 sequence (P28472 26-473): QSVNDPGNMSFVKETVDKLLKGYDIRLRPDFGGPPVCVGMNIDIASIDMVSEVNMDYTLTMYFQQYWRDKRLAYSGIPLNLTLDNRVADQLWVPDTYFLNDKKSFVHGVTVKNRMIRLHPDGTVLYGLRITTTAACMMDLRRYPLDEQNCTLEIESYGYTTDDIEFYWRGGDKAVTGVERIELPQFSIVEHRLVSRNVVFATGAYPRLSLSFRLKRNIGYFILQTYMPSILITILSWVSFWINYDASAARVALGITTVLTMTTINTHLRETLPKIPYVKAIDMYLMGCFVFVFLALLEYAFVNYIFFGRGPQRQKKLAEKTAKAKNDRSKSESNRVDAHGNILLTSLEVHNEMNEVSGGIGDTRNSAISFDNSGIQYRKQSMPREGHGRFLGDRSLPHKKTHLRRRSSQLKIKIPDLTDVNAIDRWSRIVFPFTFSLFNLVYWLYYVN
T3 sequence (O14764 25-452 partner): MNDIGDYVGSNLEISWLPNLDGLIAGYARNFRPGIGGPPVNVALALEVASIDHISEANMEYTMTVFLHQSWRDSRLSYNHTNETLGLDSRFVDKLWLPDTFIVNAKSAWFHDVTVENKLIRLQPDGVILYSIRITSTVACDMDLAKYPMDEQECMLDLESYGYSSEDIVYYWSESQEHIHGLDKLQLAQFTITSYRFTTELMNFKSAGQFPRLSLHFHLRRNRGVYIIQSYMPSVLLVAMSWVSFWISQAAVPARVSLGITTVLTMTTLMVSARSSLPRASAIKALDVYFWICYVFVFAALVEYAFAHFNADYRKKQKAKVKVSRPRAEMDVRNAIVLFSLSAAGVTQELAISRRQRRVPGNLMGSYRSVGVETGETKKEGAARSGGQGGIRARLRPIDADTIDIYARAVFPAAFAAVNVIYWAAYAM
T2 sequence (P24046 22-479): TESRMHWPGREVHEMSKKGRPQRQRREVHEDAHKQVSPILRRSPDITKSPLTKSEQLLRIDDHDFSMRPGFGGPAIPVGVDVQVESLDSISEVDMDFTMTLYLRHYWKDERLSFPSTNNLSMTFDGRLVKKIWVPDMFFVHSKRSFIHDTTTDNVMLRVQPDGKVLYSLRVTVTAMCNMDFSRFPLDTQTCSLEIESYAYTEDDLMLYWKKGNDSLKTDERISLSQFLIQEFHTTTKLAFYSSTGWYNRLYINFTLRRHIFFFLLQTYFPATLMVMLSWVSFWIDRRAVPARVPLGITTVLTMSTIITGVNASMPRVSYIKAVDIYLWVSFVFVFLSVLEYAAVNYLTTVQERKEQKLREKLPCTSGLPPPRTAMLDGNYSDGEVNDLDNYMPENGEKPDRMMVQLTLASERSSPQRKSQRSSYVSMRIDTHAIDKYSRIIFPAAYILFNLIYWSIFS

Regarding `CC(C)c1cc(CCCC(=O)NCc2ccc(/N=N/c3ccc(C(=O)NCCN)cc3)cc2)cc(C(C)C)c1O` [MPC088, (E)-N-(2-Aminoethyl)-4-((4-((4-(4-hydroxy-3,5-diisopropylphenyl)butanamido)methyl)phenyl)diazenyl)benzamide], the “GABAAR potentiating and direct agonist activities relative to parent propofol” value in data set [1] is reported as “more than an order of magnitude”. In addition, the “rate constant 1/τ of UV-induced decrease in membrane current (de-potentiation)” value in data set [1] (10-fold reduced UV intensity) was 0.13 ± 0.02 s⁻¹; in data set [1] (nominal UV intensity) it was 0.43 ± 0.09 s⁻¹. Also, the “potentiation of the GABA response” value in data set [1] (co-applied 3 μM GABA, MPC088 1 μM, MPD021 10 or 100 μM, MPC100 10 μM) is “markedly potentiated the GABA response”. Moreover, in data set [1] (compound alone), the “maximum current of direct activation relative to the 100 μM GABA response” value is listed as “comparable with the peak current elicited by 100 μM GABA”. Besides, the “lowest concentration at which direct activation response is clearly evident” value in data set [1] (compound alone, no GABA) was 4 µM. In addition, in data set [1] (concentrations required for peak current equal to 40% of the 100 μM GABA-alone response), the “potency in direct activation relative to propofol” value is recorded as roughly 25 fold. Moreover, the entries for the “cis-isomer content (1H NMR)” value in data set [2] (setting [5]), in data set [2] (setting [6]) and in data set [2] (setting [7]) were 6%, 91% and 19%, respectively. The “trans-isomer content (1H NMR)” value turned out to be 94% in data set [2] (setting [5]), 9% in data set [2] (setting [6]) and 81% in data set [2] (setting [7]). The “time constant of absorbance change at 338 nm” value was 1.7 ± 0.3 s in data set [2] (UV light, nominal intensity); 22 ± 3 s in data set [2] (reduced-intensity UV light (10% of nominal)); 36 ± 2 s in data set [2] (visible light). The “potentiating and direct agonist activity” value in data set [3] is “lacked both potentiating and direct agonist activity”. Moreover, at α4β3δ GABAAR (co-applied 50 nM GABA (~EC8)), the “plateau of response function relative to response with high GABA concentration” value was roughly 42%. For the same compound, on α4β3δ GABAAR (compound alone), the “direct agonist activity” value was “much lower than those at α1β3γ2 and α1β2γ2”. The “potentiation of the response elicited by 2 μM GABA” value in data set [4] (10 μM trans-dominant) is “approximately 5 fold”. Also, the “peak amplitude of direct response relative to response to 200 μM GABA” value was determined as 5% in data set [4] (30 μM trans-dominant) and 43±9% in data set [4] (60 μM trans-dominant). Moreover, the “reduction of agonist activity by UV pre-treatment” value in data set [4] (60 μM, UV pre-treated (cis-dominant) vs trans-dominant) is 88±6%.
